Source: the CheMixHub viscosity set
± gives the uncertainty stated by the source.

Experiment: xn = mol fraction of the nth substance listed

CCOCCO + O=S1(=O)CCCC1
viscosity (303.15 K, 101 kPa, x2 = 0.0459): 1.145 ± 0.013 mPa·s
viscosity (303.15 K, 101 kPa, x2 = 0.1045): 0.887 ± 0.011 mPa·s
viscosity (303.15 K, 101 kPa, x2 = 0.1957): 0.692 ± 0.008 mPa·s
viscosity (303.15 K, 101 kPa, x2 = 0.2957): 0.877 ± 0.01 mPa·s
viscosity (303.15 K, 101 kPa, x2 = 0.3504): 1.721 ± 0.02 mPa·s
viscosity (303.15 K, 101 kPa, x2 = 0.3966): 2.176 ± 0.025 mPa·s
viscosity (303.15 K, 101 kPa, x2 = 0.4471): 2.684 ± 0.031 mPa·s
viscosity (303.15 K, 101 kPa, x2 = 0.4987): 3.644 ± 0.042 mPa·s
viscosity (303.15 K, 101 kPa, x2 = 0.5514): 4.636 ± 0.053 mPa·s
viscosity (303.15 K, 101 kPa, x2 = 0.5999): 5.66 ± 0.064 mPa·s
viscosity (303.15 K, 101 kPa, x2 = 0.6984): 6.898 ± 0.077 mPa·s
viscosity (303.15 K, 101 kPa, x2 = 0.8002): 8.224 ± 0.092 mPa·s
viscosity (303.15 K, 101 kPa, x2 = 0.8997): 9.136 ± 0.1 mPa·s
viscosity (303.15 K, 101.33 kPa, x1 = 0.042): 8.909 ± 0.13 mPa·s
viscosity (303.15 K, 101.33 kPa, x1 = 0.0712): 7.997 ± 0.12 mPa·s
viscosity (303.15 K, 101.33 kPa, x1 = 0.109): 7.117 ± 0.11 mPa·s
viscosity (303.15 K, 101.33 kPa, x1 = 0.1849): 5.742 ± 0.088 mPa·s
viscosity (303.15 K, 101.33 kPa, x1 = 0.2899): 4.443 ± 0.069 mPa·s
viscosity (303.15 K, 101.33 kPa, x1 = 0.3942): 3.612 ± 0.056 mPa·s
viscosity (303.15 K, 101.33 kPa, x1 = 0.5561): 2.759 ± 0.043 mPa·s
viscosity (303.15 K, 101.33 kPa, x1 = 0.6236): 2.472 ± 0.038 mPa·s
viscosity (303.15 K, 101.33 kPa, x1 = 0.6586): 2.349 ± 0.036 mPa·s
viscosity (303.15 K, 101.33 kPa, x1 = 0.7385): 2.108 ± 0.033 mPa·s
viscosity (303.15 K, 101.33 kPa, x1 = 0.7622): 2.027 ± 0.032 mPa·s
viscosity (303.15 K, 101.33 kPa, x1 = 0.8406): 1.843 ± 0.029 mPa·s
viscosity (303.15 K, 101.33 kPa, x1 = 0.9162): 1.688 ± 0.026 mPa·s
viscosity (303.15 K, 101.33 kPa, x1 = 0.9539): 1.619 ± 0.025 mPa·s

CC(C)CCO + CN(C)C=O
viscosity (298.15 K, 101 kPa, x2 = 0.5467): 1.634 ± 0.4 mPa·s

Cc1cccc(Cl)c1 + CCOC(=O)c1ccccc1
viscosity (303.15 K, 101 kPa, x2 = 0.0789): 0.775 ± 0.013 mPa·s
viscosity (303.15 K, 101 kPa, x2 = 0.1831): 0.822 ± 0.014 mPa·s
viscosity (303.15 K, 101 kPa, x2 = 0.2348): 0.851 ± 0.014 mPa·s
viscosity (303.15 K, 101 kPa, x2 = 0.3353): 0.913 ± 0.015 mPa·s
viscosity (303.15 K, 101 kPa, x2 = 0.4121): 0.973 ± 0.016 mPa·s
viscosity (303.15 K, 101 kPa, x2 = 0.4871): 1.043 ± 0.017 mPa·s
viscosity (303.15 K, 101 kPa, x2 = 0.5629): 1.122 ± 0.018 mPa·s
viscosity (303.15 K, 101 kPa, x2 = 0.6364): 1.212 ± 0.019 mPa·s
viscosity (303.15 K, 101 kPa, x2 = 0.711): 1.312 ± 0.02 mPa·s
viscosity (303.15 K, 101 kPa, x2 = 0.7831): 1.419 ± 0.022 mPa·s
viscosity (303.15 K, 101 kPa, x2 = 0.8563): 1.54 ± 0.024 mPa·s
viscosity (303.15 K, 101 kPa, x2 = 0.9045): 1.625 ± 0.025 mPa·s
viscosity (303.15 K, 101 kPa, x2 = 0.9524): 1.714 ± 0.026 mPa·s
viscosity (313.15 K, 101 kPa, x2 = 0.0789): 0.672 ± 0.012 mPa·s
viscosity (313.15 K, 101 kPa, x2 = 0.1831): 0.711 ± 0.012 mPa·s
viscosity (313.15 K, 101 kPa, x2 = 0.2348): 0.734 ± 0.012 mPa·s
viscosity (313.15 K, 101 kPa, x2 = 0.3353): 0.782 ± 0.013 mPa·s
viscosity (313.15 K, 101 kPa, x2 = 0.4121): 0.827 ± 0.014 mPa·s
viscosity (313.15 K, 101 kPa, x2 = 0.4871): 0.881 ± 0.014 mPa·s
viscosity (313.15 K, 101 kPa, x2 = 0.5629): 0.938 ± 0.015 mPa·s
viscosity (313.15 K, 101 kPa, x2 = 0.6364): 1.006 ± 0.016 mPa·s
viscosity (313.15 K, 101 kPa, x2 = 0.711): 1.084 ± 0.017 mPa·s
viscosity (313.15 K, 101 kPa, x2 = 0.7831): 1.166 ± 0.018 mPa·s
viscosity (313.15 K, 101 kPa, x2 = 0.8563): 1.257 ± 0.02 mPa·s
viscosity (313.15 K, 101 kPa, x2 = 0.9045): 1.321 ± 0.02 mPa·s
viscosity (313.15 K, 101 kPa, x2 = 0.9524): 1.388 ± 0.021 mPa·s

CC(C)CCCCCCCOC(=O)c1ccccc1C(=O)OCCCCCCCC(C)C + O
viscosity (293.23 K, 101 kPa, x2 = 0.0005): 122.8 ± 2.6 mPa·s
viscosity (293.23 K, 101 kPa, x2 = 0.00265): 122.3 ± 2.6 mPa·s
viscosity (298.26 K, 101 kPa, x2 = 0.0005): 87.79 ± 1.6 mPa·s
viscosity (298.26 K, 101 kPa, x2 = 0.00265): 87.38 ± 1.6 mPa·s
